Test results reported in the supplement of paper PMC10307832.

Key:
Test in all cases: relative viability (nuclei count vs DMSO), 5 days (fraction); higher = more cells survive
[1] = compound: CCCS(=O)(=O)Nc1ccc(F)c(C(=O)c2c[nH]c3ncc(-c4ccc(Cl)cc4)cc23)c1F [Vemurafenib] + COc1cccc2cc(-c3nc([C@H]4CC[C@H](C(=O)O)CC4)n4ncnc(N)c34)[nH]c12 [OSI-027] (partner 0.5 µM)
In short: (§1)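 Dosing by pin tool came one day after lung cancer cell lines were seeded in 1536-well plates, using either one drug or a fixed anchor-drug dose plus five library-drug doses (not always all listed) in √10 steps. After 5 days, nuclei were counted on 4× images. Relative viability is treated-well nuclei count divided by vehicle-well nuclei count, and values are medians of duplicate plates.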

[2] = compound: Cc1nc(NC(=O)N2CCC[C@H]2C(N)=O)sc1-c1ccnc(C(C)(C)C(F)(F)F)c1 [Alpelisib] + CC(=O)c1c(C)c2cnc(Nc3ccc(N4CCNCC4)cn3)nc2n(C2CCCC2)c1=O [Palbociclib] (partner 0.5 µM)
In short: as §1

[3] = compound: Cc1nc(NC(=O)N2CCC[C@H]2C(N)=O)sc1-c1ccnc(C(C)(C)C(F)(F)F)c1 [Alpelisib] + CC(C)C[C@H](NC(=O)[C@H](Cc1ccccc1)NC(=O)c1cnccn1)B(O)O [Bortezomib] (partner 0.002 µM)
In short: as §1

[4] = compound: Cc1nc(NC(=O)N2CCC[C@H]2C(N)=O)sc1-c1ccnc(C(C)(C)C(F)(F)F)c1 [Alpelisib] + Cc1cc(Nc2cc(N3CCN(C)CC3)nc(Sc3ccc(NC(=O)C4CC4)cc3)n2)n[nH]1 [Tozasertib] (partner 0.1 µM)
In short: as §1

Row | Cell Line | relative viability ([1]; first compound 0.03162 µM) | relative viability ([1]; first compound 0.1 µM) | relative viability ([1]; first compound 1 µM) | relative viability ([2]; first compound 0.04 µM) | relative viability ([2]; first compound 0.1265 µM) | relative viability ([2]; first compound 0.4 µM) | relative viability ([2]; first compound 1.265 µM) | relative viability ([2]; first compound 4 µM) | relative viability ([3]; first compound 0.04 µM) | relative viability ([3]; first compound 0.1265 µM) | relative viability ([3]; first compound 0.4 µM) | relative viability ([3]; first compound 1.265 µM) | relative viability ([3]; first compound 4 µM) | relative viability ([4]; first compound 0.04 µM) | relative viability ([4]; first compound 0.1265 µM) | relative viability ([4]; first compound 0.4 µM) | relative viability ([4]; first compound 1.265 µM) | relative viability ([4]; first compound 4 µM) | relative viability ([1]; first compound 0.3162 µM)
1 | LC-2-ad | 0.753 | 0.629 | 0.747 | 0.547 | 0.47 | 0.467 | 0.404 | 0.409 | 1.05 | 1.01 | 1.09 | 0.955 | 0.844 | 0.377 | 0.372 | 0.431 | 0.307 | 0.348 | 
2 | NCI-H2126 | 0.606 | 0.591 | 0.651 | 0.363 | 0.334 | 0.345 | 0.359 | 0.334 | 1.06 | 1.06 | 1.03 | 0.974 | 0.81 | 0.879 | 0.826 | 0.809 | 0.627 | 0.584 | 0.856
3 | HCC-44 | 0.419 | 0.361 | 0.426 | 0.98 | 0.921 | 0.988 | 0.881 | 0.913 | 0.882 | 0.873 | 0.937 | 0.788 | 0.683 | 0.883 | 0.935 | 1.11 | 0.376 | 0.607 | 
4 | HOP-62 | 0.702 | 0.938 | 0.751 | 0.43 | 0.425 | 0.508 | 0.309 | 0.417 | 0.749 | 0.397 | 0.986 | 0.811 | 0.807 | 0.328 | 0.374 | 0.465 | 0.322 | 0.292 | 0.678
5 | LCLC-103H | 0.41 | 0.474 | 0.443 | 0.451 | 0.489 | 0.457 | 0.427 | 0.37 | 0.819 | 0.964 | 1.03 | 1.05 | 0.831 | 0.462 | 0.448 | 0.482 | 0.357 | 0.37 | 0.39
6 | HARA | 0.428 | 0.186 | 0.229 | 0.295 | 0.25 | 0.257 | 0.172 | 0.156 | 0.976 | 1.09 | 1.34 | 1.01 | 0.766 | 0.109 | 0.074 | 0.107 | 0.0657 | 0.0666 | 0.407
7 | NCI-H2087 | 0.481 | 0.565 | 0.514 | 0.301 | 0.237 | 0.246 | 0.257 | 0.193 | 0.651 | 0.78 | 0.893 | 0.685 | 0.47 | 0.256 | 0.294 | 0.305 | 0.218 | 0.167 | 
8 | NCI-H520 | 0.236 | 0.282 | 0.214 | 0.241 | 0.235 | 0.195 | 0.19 | 0.189 | 0.59 | 0.687 | 0.553 | 0.623 | 0.319 | 0.449 | 0.461 | 0.462 | 0.351 | 0.309 | 0.327
9 | HCC-78 | 0.366 | 0.322 | 0.398 | 0.521 | 0.545 | 0.479 | 0.459 | 0.43 | 0.427 | 0.474 | 0.686 | 0.337 | 0.366 | 0.411 | 0.318 | 0.504 | 0.401 | 0.292 | 0.649
10 | COR-L 105 | 0.649 |  | 0.582 | 0.394 | 0.439 | 0.414 | 0.367 | 0.364 | 0.92 | 0.86 | 1.33 | 0.735 | 0.782 | 0.372 | 0.343 | 0.591 | 0.306 | 0.334 | 
11 | NCI-H1437 | 0.857 | 0.85 | 0.875 | 0.327 | 0.314 | 0.356 | 0.264 | 0.314 | 0.504 | 0.515 | 0.497 | 0.49 | 0.508 | 0.41 | 0.394 | 0.417 | 0.336 | 0.306 | 0.855
